Test results taken from patent US6737383B1, “Herbicidal oxadiazolidines” (priority 1999, dated 2004).

Legend:
rice = assay: Test B flood test rice; type: in vivo, Oryza sativa; conditions: Pre-emergence
Experimental: (§1) At the same time, these crop and weed species were also treated with postemergence applications of test chemicals formulated in the same manner. Plants ranged in height from 2 to 18 cm (1- to 4-leaf stage) for postemergence treatments. Plant species in the flood test consisted of rice (Oryza sativa), smallflower flatsedge (Cyperus difformis), duck salad (Heteranthera limosa) and bamyardgrass (Echinochloa crus-galli) grown to the 2-leaf stage for testing. Treated plants and controls were maintained in a greenhouse for twelve to sixteen days, after which all species were compared to controls and visually evaluated. Plant response ratings, summarized in Table B, are based on a scale of 0 to 10 where 0 is no effect and 10 is complete control. A dash (−) response means no test result.

smallflower flatsedge = assay: Test B flood test smallflower flatsedge; type: in vivo, Cyperus difformis; conditions: for Plant response rating, S. Flatsedge (0 to 10 scale, 0 is no effect, 10 is complete control): Rate 62 g/ha
Experimental: as §1

duck salad = assay: Test B flood test duck salad; type: in vivo, Heteranthera limosa; conditions: for Plant response rating, Ducksalad (0 to 10 scale, 0 is no effect, 10 is complete control): Rate 62 g/ha
Procedure, shortened: (§2)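 Each value is a visual injury score relative to controls, with 10 meaning complete control and 0 no effect. Evaluation took place twelve to sixteen days after the 2-leaf-stage plants were treated and kept in the greenhouse.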

bamyardgrass = assay: Test B flood test barnyardgrass; type: in vivo, Echinochloa crus-galli; conditions: for Plant response rating, Barnyardgrass (0 to 10 scale, 0 is no effect, 10 is complete control): Rate 62 g/ha
Procedure, shortened: as §2

bedstraw = assay: Test B pre/postemergence bedstraw; type: in vivo, Galium aparine; conditions: Preemergence
Procedure, shortened: (§3)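 Test chemicals in a non-phytotoxic solvent mixture with surfactant were sprayed preemergence onto planted seeds and postemergence onto plants 2 to 18 cm tall (1- to 4-leaf stage). After twelve to sixteen days in a greenhouse, injury was visually rated against untreated controls from 0 (no effect) to 10 (complete control).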

blackgrass = assay: Test B pre/postemergence blackgrass; type: in vivo, Alopecurus myosuroides; conditions: Preemergence
Procedure, shortened: as §3

surinam grass = assay: Test B pre/postemergence surinam grass; type: in vivo, Brachiaria decumbens; conditions: Preemergence
Procedure, shortened: as §3

cocklebur = assay: Test B pre/postemergence cocklebur; type: in vivo, Xanthium strumarium; conditions: Preemergence
Procedure, shortened: as §3

corn = assay: Test B pre/postemergence corn; type: in vivo, Zea mays; conditions: Preemergence
Procedure, shortened: as §3

crabgrass = assay: Test B pre/postemergence crabgrass; type: in vivo, Digitaria sanguinalis; conditions: Preemergence
Procedure, shortened: as §3

giant foxtail = assay: Test B pre/postemergence giant foxtail; type: in vivo, Setaria faberii; conditions: Preemergence
Procedure, shortened: as §3

morningglory = assay: Test B pre/postemergence morningglory; type: in vivo, Ipomoea hederacea; conditions: Preemergence
Procedure, shortened: as §3

pigweed = assay: Test B pre/postemergence pigweed; type: in vivo, Amaranthus retroflexus; conditions: Preemergence
Procedure, shortened: as §3

rape = assay: Test B pre/postemergence rape; type: in vivo, Brassica napus; conditions: Preemergence
Procedure, shortened: as §3

soybean = assay: Test B pre/postemergence soybean; type: in vivo, Glycine max; conditions: Preemergence
Procedure, shortened: as §3

sugar beet = assay: Test B pre/postemergence sugar beet; type: in vivo, Beta vulgaris; conditions: Preemergence
Procedure, shortened: as §3

velvetleaf = assay: Test B pre/postemergence velvetleaf; type: in vivo, Abutilon theophrasti; conditions: Preemergence
Procedure, shortened: as §3

wheat = assay: Test B pre/postemergence wheat; type: in vivo, Triticum aestivum; conditions: Preemergence
Procedure, shortened: as §3

wild oat = assay: Test B pre/postemergence wild oat; type: in vivo, Avena fatua; conditions: Preemergence
Procedure, shortened: as §3

purple nutsedge = assay: Test B pre/postemergence purple nutsedge; type: in vivo, Cyperus rotundus; conditions: Preemergence
Procedure, shortened: as §3

[1] = flood test species, Pre-emergence, visual evaluation after twelve to sixteen days
[2] = Rate 125 g/ha, Pre-emergence, flood test species, scale 0 to 10 where 0 is no effect and 10 is complete control
[3] = Rate 250 g/ha, Pre-emergence, flood-test species, scale 0 to 10, 0 is no effect, 10 is complete control
[4] = Rate 500 g/ha, Pre-emergence, flood test species, scale 0 to 10 (0 no effect, 10 complete control)
[5] = Rate 62 g/ha, scale of 0 to 10 where 0 is no effect and 10 is complete control
[6] = Rate 125 g/ha, scale of 0 to 10 where 0 is no effect and 10 is complete control
[7] = Rate 250 g/ha, scale 0 to 10 (0 no effect, 10 complete control)
[8] = Rate 500 g/ha, scale of 0 to 10 where 0 is no effect and 10 is complete control
[9] = Rate 125 g/ha, under heading Pre-emergence, flood test species, visual evaluation after twelve to sixteen days
[10] = Rate 250 g/ha, Pre-emergence (flood test species), scale 0 to 10, 0 is no effect, 10 is complete control
[11] = Rate 500 g/ha, Pre-emergence section of Table B, 0 to 10 scale (0 no effect, 10 complete control)

Cc1cc(C)n(Cn2c(=O)on(C(=O)N(c3ccccc3)C(C)C)c2=O)n1 [Compound 346]
Plant response rating, Rice (0 to 10 scale, 0 is no effect, 10 is complete control) (rice; Rate 62 g/ha, flood test species, visual evaluation after twelve to sixteen days): 0 | Rice plant response rating (rice; Rate 125 g/ha, flood test species, scale 0 to 10 where 0 is no effect and 10 is complete control): 0 | Rice plant response rating (rice; Rate 250 g/ha, flood-test species, scale 0 to 10, 0 is no effect, 10 is complete control): 0 | Rice plant response rating (rice; Rate 500 g/ha, flood test species, scale 0 to 10 (0 no effect, 10 complete control)): 0 | Plant response rating, S. Flatsedge (0 to 10 scale, 0 is no effect, 10 is complete control) (smallflower flatsedge; [1]): 0 | S. Flatsedge plant response rating (smallflower flatsedge; [2]): 0 | S. Flatsedge plant response rating (smallflower flatsedge; [3]): 0 | S. Flatsedge plant response rating (smallflower flatsedge; [4]): 0 | Plant response rating, Ducksalad (0 to 10 scale, 0 is no effect, 10 is complete control) (duck salad; [1]): 0 | Ducksalad plant response rating (duck salad; [2]): 0 | Ducksalad plant response rating (duck salad; [3]): 0 | Ducksalad plant response rating (duck salad; [4]): 0 | Plant response rating, Barnyardgrass (0 to 10 scale, 0 is no effect, 10 is complete control) (bamyardgrass; [1]): 0 | Barnyardgrass plant response rating (bamyardgrass; [2]): 0 | Barnyardgrass plant response rating (bamyardgrass; [3]): 0 | Barnyardgrass plant response rating (bamyardgrass; [4]): 0

CCCCCCn1c(=O)on(C(=O)N(c2ccc(F)cc2F)C(C)C)c1=O [Compound 637]
Bedstraw plant response rating (bedstraw; [5]): 0 | Bedstraw plant response rating (bedstraw; [6]): 0 | Plant response rating, Bedstraw (bedstraw; [7]): 2 | Plant response rating, Bedstraw (bedstraw; [8]): 4 | Blackgrass plant response rating (blackgrass; [5]): 2 | Blackgrass plant response rating (blackgrass; [6]): 3 | Plant response rating, Blackgrass (blackgrass; [7]): 9 | Plant response rating, Blackgrass (blackgrass; [8]): 9 | B. signalgrass plant response rating (surinam grass; [5]): 0 | B. signalgrass plant response rating (surinam grass; [6]): 3 | Plant response rating, B. signalgrass (surinam grass; [7]): 8 | Plant response rating, B. signalgrass (surinam grass; [8]): 8 | Cocklebur plant response rating (cocklebur; [5]): 0 | Cocklebur plant response rating (cocklebur; [6]): 0 | Plant response rating, Cocklebur (cocklebur; [7]): 0 | Plant response rating, Cocklebur (cocklebur; [8]): 0 | Corn plant response rating (corn; [5]): 0 | Corn plant response rating (corn; [6]): 0 | Plant response rating, Corn (corn; [7]): 0 | Plant response rating, Corn (corn; [8]): 0 | Crabgrass plant response rating (crabgrass; [5]): 9 | Crabgrass plant response rating (crabgrass; [6]): 9 | Plant response rating, Crabgrass (crabgrass; [7]): 10 | Plant response rating, Crabgrass (crabgrass; [8]): 10 | Giant foxtail plant response rating (giant foxtail; [5]): 9 | Giant foxtail plant response rating (giant foxtail; [6]): 10 | Plant response rating, Giant foxtail (giant foxtail; [7]): 10 | Plant response rating, Giant foxtail (giant foxtail; [8]): 10 | Morningglory plant response rating (morningglory; [5]): 0 | Morningglory plant response rating (morningglory; [6]): 0 | Plant response rating, Morningglory (morningglory; [7]): 0 | Plant response rating, Morningglory (morningglory; [8]): 0 | Redroot pigweed plant response rating (pigweed; [5]): 4 | Redroot pigweed plant response rating (pigweed; [6]): 9 | Plant response rating, Redroot pigweed (pigweed; [7]): 7 | Plant response rating, Redroot pigweed (pigweed; [8]): 10 | Rape plant response rating (rape; [5]): 0 | Rape plant response rating (rape; [6]): 0 | Plant response rating, Rape (rape; [7]): 2 | Plant response rating, Rape (rape; [8]): 3 | Soybean plant response rating (soybean; [5]): 0 | Soybean plant response rating (soybean; [6]): 0 | Plant response rating, Soybean (soybean; [7]): 0 | Plant response rating, Soybean (soybean; [8]): 0 | Sugarbeets plant response rating (sugar beet; [5]): 0 | Sugarbeets plant response rating (sugar beet; [6]): 0 | Plant response rating, Sugarbeets (sugar beet; [7]): 3 | Plant response rating, Sugarbeets (sugar beet; [8]): 5 | Velvetleaf plant response rating (velvetleaf; [5]): 0 | Velvetleaf plant response rating (velvetleaf; [6]): 0 | Plant response rating, Velvetleaf (velvetleaf; [7]): 0 | Plant response rating, Velvetleaf (velvetleaf; [8]): 2 | Wheat plant response rating (wheat; [5]): 0 | Wheat plant response rating (wheat; [6]): 0 | Plant response rating, Wheat (wheat; [7]): 0 | Plant response rating, Wheat (wheat; [8]): 0 | Wild oats plant response rating (wild oat; [5]): 0 | Wild oats plant response rating (wild oat; [6]): 0 | Plant response rating, Wild oats (wild oat; [7]): 0 | Plant response rating, Wild oats (wild oat; [8]): 3 | Nutsedge plant response rating (purple nutsedge; [5]): 0 | Nutsedge plant response rating (purple nutsedge; [6]): 0 | Plant response rating, Nutsedge (purple nutsedge; [7]): 0 | Plant response rating, Nutsedge (purple nutsedge; [8]): 0 | Plant response rating, S. Flatsedge (0 to 10 scale, 0 is no effect, 10 is complete control) (smallflower flatsedge; [1]): 0 | S. Flatsedge plant response rating (0 to 10 scale, 0 is no effect, 10 is complete control) (smallflower flatsedge; [9]): 0 | S. Flatsedge plant response rating (smallflower flatsedge; [10]): 0 | S. Flatsedge plant response rating (smallflower flatsedge; [11]): 0 | Plant response rating, Ducksalad (0 to 10 scale, 0 is no effect, 10 is complete control) (duck salad; [1]): 0 | Ducksalad plant response rating (0 to 10 scale, 0 is no effect, 10 is complete control) (duck salad; [9]): 0 | Ducksalad plant response rating (duck salad; [10]): 0 | Ducksalad plant response rating (duck salad; [11]): 0 | Plant response rating, Barnyardgrass (0 to 10 scale, 0 is no effect, 10 is complete control) (bamyardgrass; [1]): 0 | Barnyardgrass plant response rating (0 to 10 scale, 0 is no effect, 10 is complete control) (bamyardgrass; [9]): 0 | Barnyardgrass plant response rating (bamyardgrass; [10]): 0 | Barnyardgrass plant response rating (bamyardgrass; [11]): 0
